Test results taken from the CheMixHub drug solubility set.

Assay: xn = mol fraction of the nth substance listed, in the solute-free solvent

O=c1ccc(-c2ccccc2)n[nH]1 + CS(C)=O + O
solubility (g/100 g solution)
Conditions | x2 = 0.02501 | x2 = 0.05457 | x2 = 0.09003 | x2 = 0.1334 | x2 = 0.1876 | x2 = 0.2572 | x2 = 0.3501 | x2 = 0.4801 | x2 = 0.6751
298.15 K | 0.016 | 0.0442 | 0.124 | 0.333 | 0.899 | 2.36 | 6.21 | 14.3 | 30.9
303.15 K | 0.0188 | 0.051 | 0.14 | 0.376 | 1.01 | 2.59 | 6.53 | 15.1 | 32.4
308.15 K | 0.0223 | 0.0609 | 0.166 | 0.428 | 1.12 | 2.85 | 7.05 | 16.1 | 33.6
313.15 K | 0.0267 | 0.0709 | 0.188 | 0.487 | 1.26 | 3.14 | 7.63 | 17.1 | 35.2
318.15 K | 0.0334 | 0.0872 | 0.224 | 0.571 | 1.45 | 3.54 | 8.41 | 18.3 | 36.8

CN1CCN(C2=Nc3cc(Cl)ccc3Nc3ccccc32)CC1 + Cc1ccccc1 + CC(C)=O
323.15 K
Conditions | solubility (g/100 g solution)
x2 = 0.06574 | 13.6
x2 = 0.1358 | 15.9
x2 = 0.2124 | 17.4
x2 = 0.2962 | 17
x2 = 0.3864 | 17
x2 = 0.4859 | 16
x2 = 0.5953 | 14.7
x2 = 0.7159 | 12.9
x2 = 0.8497 | 10.3

CCC(C)n1ncn(-c2ccc(N3CCN(c4ccc(OCC5COC(Cn6cncn6)(c6ccc(Cl)cc6Cl)O5)cc4)CC3)cc2)c1=O (stereo not given) + ClC(Cl)Cl + CCCCO
solubility (g/100 g solution)
Conditions | x2 = 0.06524 | x2 = 0.1357 | x2 = 0.2121 | x2 = 0.2952 | x2 = 0.3858 | x2 = 0.4851 | x2 = 0.5945 | x2 = 0.7153 | x2 = 0.8497
288.15 K | 0.0548 | 0.12 | 0.336 | 0.987 | 3.22 | 7.01 | 12 | 17.9 | 23.9
293.15 K | 0.0651 | 0.142 | 0.387 | 1.18 | 3.56 | 7.85 | 13.2 | 18.9 | 24.8
298.15 K | 0.0777 | 0.171 | 0.445 | 1.39 | 3.92 | 8.74 | 14.3 | 20.1 | 25.6
303.15 K | 0.0924 | 0.202 | 0.509 | 1.65 | 4.3 | 9.68 | 15.4 | 21.3 | 26.5
308.15 K | 0.109 | 0.237 | 0.583 | 1.93 | 4.71 | 10.7 | 16.6 | 22.4 | 27.4

CCC(C)n1ncn(-c2ccc(N3CCN(c4ccc(OCC5COC(Cn6cncn6)(c6ccc(Cl)cc6Cl)O5)cc4)CC3)cc2)c1=O (stereo not given) + ClC(Cl)Cl + CCCO
solubility (g/100 g solution)
Conditions | x2 = 0.05356 | x2 = 0.113 | x2 = 0.1792 | x2 = 0.2535 | x2 = 0.3375 | x2 = 0.4331 | x2 = 0.5431 | x2 = 0.6708 | x2 = 0.8209
288.15 K | 0.0558 | 0.128 | 0.28 | 0.831 | 3.16 | 6.95 | 12.2 | 17.6 | 24.2
293.15 K | 0.0691 | 0.153 | 0.347 | 1.04 | 3.51 | 7.71 | 13.2 | 18.8 | 25.1
298.15 K | 0.0837 | 0.183 | 0.426 | 1.28 | 3.9 | 8.57 | 14.2 | 19.9 | 26.1
303.15 K | 0.102 | 0.216 | 0.523 | 1.57 | 4.29 | 9.48 | 15.3 | 21.1 | 26.9
308.15 K | 0.122 | 0.255 | 0.63 | 1.89 | 4.73 | 10.4 | 16.3 | 22.3 | 27.8

CCC(C)n1ncn(-c2ccc(N3CCN(c4ccc(OCC5COC(Cn6cncn6)(c6ccc(Cl)cc6Cl)O5)cc4)CC3)cc2)c1=O (stereo not given) + ClC(Cl)Cl + CCO
solubility (g/100 g solution)
Conditions | x2 = 0.04158 | x2 = 0.08894 | x2 = 0.1434 | x2 = 0.2065 | x2 = 0.2808 | x2 = 0.3694 | x2 = 0.4767 | x2 = 0.6097 | x2 = 0.7785
288.15 K | 0.0692 | 0.133 | 0.268 | 0.494 | 1.05 | 3.89 | 10.7 | 19.4 | 26.1
293.15 K | 0.0835 | 0.16 | 0.32 | 0.565 | 1.38 | 4.82 | 12 | 20.6 | 26.9
298.15 K | 0.0993 | 0.189 | 0.375 | 0.644 | 1.77 | 6 | 13.4 | 21.8 | 27.8
303.15 K | 0.117 | 0.225 | 0.442 | 0.733 | 2.24 | 7.3 | 14.8 | 23 | 28.7
308.15 K | 0.138 | 0.267 | 0.516 | 0.832 | 2.82 | 8.83 | 16.4 | 24.2 | 29.5

CCC(C)n1ncn(-c2ccc(N3CCN(c4ccc(OCC5COC(Cn6cncn6)(c6ccc(Cl)cc6Cl)O5)cc4)CC3)cc2)c1=O (stereo not given) + ClC(Cl)Cl + CO
solubility (g/100 g solution)
Conditions | x2 = 0.02929 | x2 = 0.06358 | x2 = 0.1043 | x2 = 0.1533 | x2 = 0.2136 | x2 = 0.2895 | x2 = 0.3879 | x2 = 0.5207 | x2 = 0.7097
288.15 K | 0.123 | 0.229 | 0.436 | 0.789 | 1.79 | 5.31 | 16.6 | 24.9 | 29.3
293.15 K | 0.147 | 0.272 | 0.515 | 0.931 | 2.3 | 6.83 | 18.2 | 26.3 | 30.1
298.15 K | 0.174 | 0.318 | 0.607 | 1.09 | 2.88 | 8.58 | 19.9 | 27.7 | 30.9
303.15 K | 0.205 | 0.373 | 0.708 | 1.29 | 3.66 | 10.8 | 21.7 | 29.1 | 31.7
308.15 K | 0.242 | 0.434 | 0.827 | 1.5 | 4.54 | 13.4 | 23.6 | 30.4 | 32.5

CN1CCN(C2=Nc3cc(Cl)ccc3Nc3ccccc32)CC1 + ClC(Cl)Cl + Cc1ccccc1
solubility (g/100 g solution)
Conditions | x2 = 0.07983 | x2 = 0.1632 | x2 = 0.2513 | x2 = 0.3428 | x2 = 0.4382 | x2 = 0.5396 | x2 = 0.6452 | x2 = 0.7576 | x2 = 0.8755
293.15 K | 2.67 | 2.81 | 3.33 | 3.96 | 4.41 | 5.51 | 6.99 | 8.93 | 11.8
298.15 K | 3.12 | 3.3 | 3.67 | 4.31 | 4.65 | 6.29 | 7.75 | 10.1 | 12.8
303.15 K | 3.39 | 3.85 | 4.08 | 4.65 | 5.25 | 6.98 | 8.51 | 10.9 | 13.3
308.15 K | 3.94 | 4.46 | 4.87 | 5.59 | 6.7 | 7.99 | 9.81 | 12.6 | 14.4
313.15 K | 4.95 | 5.37 | 6 | 6.97 | 7.69 | 9.1 | 11.1 | 13.9 | 16.5
318.15 K | 5.94 | 6.56 | 6.71 | 8.12 | 9.11 | 10.3 | 12.3 | 16.2 | 19.1
323.15 K | 6.09 | 7.9 | 9.16 | 10 | 10.9 | 12.6 | 15.7 | 19.2 | 22.4

CN1CCN(C2=Nc3cc(Cl)ccc3Nc3ccccc32)CC1 + ClCCCl + Cc1ccccc1
solubility (g/100 g solution)
Conditions | x2 = 0.09454 | x2 = 0.1907 | x2 = 0.2875 | x2 = 0.3851 | x2 = 0.4844 | x2 = 0.5848 | x2 = 0.6866 | x2 = 0.79 | x2 = 0.8945
293.15 K | 2.42 | 2.81 | 3.04 | 3.48 | 3.87 | 4.26 | 4.74 | 5.15 | 5.47
298.15 K | 2.8 | 3.04 | 3.49 | 3.86 | 4.38 | 4.96 | 5.44 | 5.92 | 6.3
303.15 K | 3.12 | 3.63 | 3.88 | 4.47 | 5.03 | 5.87 | 6.44 | 6.95 | 7.31
308.15 K | 3.94 | 4.47 | 4.94 | 5.58 | 6.12 | 6.82 | 7.42 | 8.2 | 8.68
313.15 K | 4.7 | 5.37 | 5.95 | 6.67 | 7.33 | 8.06 | 8.85 | 9.38 | 9.62
318.15 K | 5.75 | 6.09 | 6.93 | 7.46 | 8.32 | 9.3 | 9.75 | 10.8 | 11.5
323.15 K | 7.24 | 7.72 | 8.87 | 9.82 | 10.7 | 11.6 | 12.3 | 13.2 | 13.6

CCC(C)n1ncn(-c2ccc(N3CCN(c4ccc(OCC5COC(Cn6cncn6)(c6ccc(Cl)cc6Cl)O5)cc4)CC3)cc2)c1=O (stereo not given) + ClCCl + CCCCO
solubility (g/100 g solution)
Conditions | x2 = 0.08928 | x2 = 0.1807 | x2 = 0.2744 | x2 = 0.3704 | x2 = 0.4687 | x2 = 0.5696 | x2 = 0.6731 | x2 = 0.7792 | x2 = 0.8882
288.15 K | 0.0509 | 0.143 | 0.594 | 1.83 | 4.18 | 9.32 | 14.8 | 19.8 | 22
293.15 K | 0.0634 | 0.189 | 0.775 | 2.27 | 5.04 | 10.4 | 16 | 20.9 | 23.1
298.15 K | 0.078 | 0.249 | 1 | 2.81 | 5.97 | 11.6 | 17 | 22.1 | 24.2
303.15 K | 0.0948 | 0.323 | 1.28 | 3.4 | 7.13 | 12.8 | 18.2 | 23.1 | 25.3
308.15 K | 0.115 | 0.412 | 1.64 | 4.11 | 8.37 | 14 | 19.3 | 24.2 | 26.4

CCC(C)n1ncn(-c2ccc(N3CCN(c4ccc(OCC5COC(Cn6cncn6)(c6ccc(Cl)cc6Cl)O5)cc4)CC3)cc2)c1=O (stereo not given) + ClCCl + CCCO
solubility (g/100 g solution)
Conditions | x2 = 0.07363 | x2 = 0.1517 | x2 = 0.2346 | x2 = 0.3229 | x2 = 0.417 | x2 = 0.5176 | x2 = 0.6254 | x2 = 0.741 | x2 = 0.8656
288.15 K | 0.0545 | 0.15 | 0.459 | 1.65 | 3.95 | 8.85 | 14.4 | 19.5 | 21.8
293.15 K | 0.0662 | 0.199 | 0.602 | 2.05 | 4.66 | 9.92 | 15.7 | 20.8 | 22.9
298.15 K | 0.0798 | 0.258 | 0.786 | 2.52 | 5.51 | 11.1 | 17 | 22 | 24
303.15 K | 0.0965 | 0.332 | 0.996 | 3.08 | 6.4 | 12.3 | 18.3 | 23.3 | 25.1
308.15 K | 0.115 | 0.424 | 1.27 | 3.71 | 7.42 | 13.6 | 19.7 | 24.6 | 26.2

CCC(C)n1ncn(-c2ccc(N3CCN(c4ccc(OCC5COC(Cn6cncn6)(c6ccc(Cl)cc6Cl)O5)cc4)CC3)cc2)c1=O (stereo not given) + ClCCl + CCO
solubility (g/100 g solution)
Conditions | x2 = 0.05744 | x2 = 0.1206 | x2 = 0.1903 | x2 = 0.2677 | x2 = 0.3542 | x2 = 0.4513 | x2 = 0.5613 | x2 = 0.6869 | x2 = 0.8315
288.15 K | 0.0488 | 0.124 | 0.37 | 1.04 | 2.95 | 7.26 | 15.2 | 21.3 | 25.9
293.15 K | 0.0616 | 0.163 | 0.436 | 1.35 | 3.51 | 8.44 | 16.3 | 22.6 | 27
298.15 K | 0.0776 | 0.215 | 0.511 | 1.72 | 4.09 | 9.83 | 17.6 | 24 | 28.2
303.15 K | 0.0979 | 0.279 | 0.598 | 2.16 | 4.81 | 11.3 | 18.8 | 25.4 | 29.3
308.15 K | 0.122 | 0.362 | 0.694 | 2.7 | 5.58 | 13 | 20.1 | 26.7 | 30.5
